Our source for the MIC and ED50 values is ChEMBL document CHEMBL1147903, “Synthesis and antibacterial activity of oxazolidinones containing triazolyl group” (2007).

Type in all cases: functional
One assay relates to Enterococcus faecalis. Nature of the assay: Antibacterial activity against Enterococcus faecalis by microdilution broth method.
The subject of another assay is Streptococcus pneumoniae. Briefly: Antibacterial activity against penicillin-resistant Streptococcus pneumoniae by microdilution broth method. (Broth dilution looks for growth in wells or tubes with falling amounts of substance.)
The test system of assay [1] is Staphylococcus aureus. Briefly: Antibacterial activity against methicillin-resistant Staphylococcus aureus by microdilution broth method.
Assay [2] concerns Staphylococcus epidermidis. Nature of the assay: Antibacterial activity against methicillin-susceptible Staphylococcus epidermidis by microdilution broth method.
Assay [3] has as its system Staphylococcus epidermidis. Briefly: Antibacterial activity against methicillin-resistant Staphylococcus epidermidis by microdilution broth method.
The subject of assay [4] is Staphylococcus aureus. Briefly: Antibacterial activity against methicillin-susceptible Staphylococcus aureus by microdilution broth method.
Assay [5] has as its system Staphylococcus aureus. Nature of the assay: Antibacterial activity against methicillin-resistant Staphylococcus aureus BAA-42 infected po dosed KunMing mouse.
For assay [6], the system named is Staphylococcus aureus. Briefly: Antibacterial activity against methicillin-susceptible Staphylococcus aureus 04-5 infected po dosed KunMing mouse.
In assay [7] the test system is Staphylococcus epidermidis. Nature of the assay: Antibacterial activity against methicillin-resistant Staphylococcus epidermidis 03427 infected po dosed KunMing mouse.

Each structure is given as a SMILES string. ≈ marks a conversion by molar mass, not a printed value.

For the molecule `Cc1ccc(S(=O)(=O)N2CCN(c3ccc(N4C[C@H](Cn5ccnn5)OC4=O)cc3F)CC2)cc1`, the minimal inhibitory concentration (MIC) (in general, the lowest concentration found to suppress growth) in the assay with Enterococcus faecalis stood at 2 µg/mL (≈ 4 µM); against Streptococcus pneumoniae, 1 µg/mL (≈ 2 µM); against Staphylococcus aureus [1], 1 µg/mL (≈ 2 µM); in [2], 0.5 µg/mL (≈ 0.999 µM); in assay [3], 2 µg/mL (≈ 4 µM); in the assay on Staphylococcus aureus [4], 1 µg/mL (≈ 2 µM).
Regarding `O=C1O[C@@H](Cn2ccnn2)CN1c1ccc(N2CCN(S(=O)(=O)c3cccs3)CC2)c(F)c1`, the MIC (in the assay on Enterococcus faecalis; in the assay on Streptococcus pneumoniae; in the assay with Staphylococcus aureus [1]; in assay [2]; in assay [3]; against Staphylococcus aureus [4]) was 1 µg/mL (≈ 2.03 µM) in each case.
Take `O=C1O[C@@H](Cn2ccnn2)CN1c1ccc(N2CCN(S(=O)(=O)c3ccc(F)cc3F)CC2)c(F)c1`: the minimal inhibitory concentration (MIC) in the assay on Enterococcus faecalis is 2 µg/mL (≈ 3.83 µM); with Streptococcus pneumoniae, 2 µg/mL (≈ 3.83 µM); with Staphylococcus aureus [1] it was 2 µg/mL (≈ 3.83 µM); in [2], 1 µg/mL (≈ 1.91 µM); in assay [3], 1 µg/mL (≈ 1.91 µM); in the assay on Staphylococcus aureus [4], 2 µg/mL (≈ 3.83 µM).
For `COc1ccc(S(=O)(=O)N2CCN(c3ccc(N4C[C@H](Cn5ccnn5)OC4=O)cc3F)CC2)cc1`, the MIC against Enterococcus faecalis came out at 2 µg/mL (≈ 3.87 µM); against Streptococcus pneumoniae it was 0.5 µg/mL (≈ 0.968 µM); with Staphylococcus aureus [1], 0.5 µg/mL (≈ 0.968 µM); in assay [2], 2 µg/mL (≈ 3.87 µM); in [3], 2 µg/mL (≈ 3.87 µM); in the assay on Staphylococcus aureus [4], 1 µg/mL (≈ 1.94 µM).
On to `O=C1O[C@@H](Cn2ccnn2)CN1c1ccc(N2CCN(S(=O)(=O)c3ccccc3C(F)(F)F)CC2)c(F)c1`, for which the MIC in the assay with Enterococcus faecalis turned out to be 2 µg/mL (≈ 3.61 µM); with Streptococcus pneumoniae, 0.5 µg/mL (≈ 0.902 µM); against Staphylococcus aureus [1] it was 0.5 µg/mL (≈ 0.902 µM); in assay [2], 2 µg/mL (≈ 3.61 µM); in assay [3] it was 2 µg/mL (≈ 3.61 µM); in the assay on Staphylococcus aureus [4], 1 µg/mL (≈ 1.8 µM).
Take `O=C1O[C@@H](Cn2ccnn2)CN1c1ccc(N2CCNCC2)c(F)c1`: the minimum inhibitory concentration (MIC) in the assay with Enterococcus faecalis came to 2 µg/mL (≈ 5.77 µM); against Streptococcus pneumoniae, 1 µg/mL (≈ 2.89 µM); against Staphylococcus aureus [1] it was 1 µg/mL (≈ 2.89 µM); in assay [2] it was 1 µg/mL (≈ 2.89 µM); in assay [3] it was 1 µg/mL (≈ 2.89 µM); against Staphylococcus aureus [4], 1 µg/mL (≈ 2.89 µM).
On to `O=C1O[C@@H](Cn2ccnn2)CN1c1ccc(N2CCN(S(=O)(=O)c3cccc(C(F)(F)F)c3)CC2)c(F)c1`, for which the MIC in the assay on Enterococcus faecalis was found to be 0.03 µg/mL (≈ 0.0541 µM); with Streptococcus pneumoniae, 0.015 µg/mL (≈ 0.0271 µM); with Staphylococcus aureus [1], 0.06 µg/mL (≈ 0.108 µM); in assay [2] it was 0.06 µg/mL (≈ 0.108 µM); in assay [3] it was 0.5 µg/mL (≈ 0.902 µM); in the assay on Staphylococcus aureus [4] it was 0.06 µg/mL (≈ 0.108 µM).
`O=C1O[C@@H](Cn2ccnn2)CN1c1ccc(N2CCN(S(=O)(=O)c3ccc(C(F)(F)F)cc3)CC2)c(F)c1`: the MIC with Enterococcus faecalis stood at 0.5 µg/mL (≈ 0.902 µM); in the assay on Streptococcus pneumoniae, 0.5 µg/mL (≈ 0.902 µM); with Staphylococcus aureus [1], 1 µg/mL (≈ 1.8 µM); in assay [2], 0.5 µg/mL (≈ 0.902 µM); in [3] it was 1 µg/mL (≈ 1.8 µM); with Staphylococcus aureus [4], 0.5 µg/mL (≈ 0.902 µM).
`O=C1O[C@@H](Cn2ccnn2)CN1c1ccc(N2CCN(S(=O)(=O)c3ccc(Cl)cc3)CC2)c(F)c1`: the minimum inhibitory concentration (MIC) came out at 0.25 µg/mL (≈ 0.48 µM) in the assay on Enterococcus faecalis; 0.125 µg/mL (≈ 0.24 µM) with Streptococcus pneumoniae; 0.5 µg/mL (≈ 0.96 µM) against Staphylococcus aureus [1]; 0.5 µg/mL (≈ 0.96 µM) in assay [2]; 0.5 µg/mL (≈ 0.96 µM) in assay [3]; 0.125 µg/mL (≈ 0.24 µM) against Staphylococcus aureus [4].
`O=C1O[C@@H](Cn2ccnn2)CN1c1ccc(N2CCN(S(=O)(=O)c3cccc(F)c3)CC2)c(F)c1`: the MIC in the assay with Enterococcus faecalis was 0.004 µg/mL (≈ 0.00793 µM); with Streptococcus pneumoniae, 0.002 µg/mL (≈ 0.00396 µM); in the assay on Staphylococcus aureus [1], 0.25 µg/mL (≈ 0.496 µM); in [2], 0.25 µg/mL (≈ 0.496 µM); in [3], 1 µg/mL (≈ 1.98 µM); in the assay on Staphylococcus aureus [4], 0.001 µg/mL (≈ 0.00198 µM). The ED50 (commonly the dose at which the effect has come halfway, by size or by number of responders) was greater than 100 mg/kg in the assay on Staphylococcus aureus [5], 55.1 mg/kg with Staphylococcus aureus [6] and greater than 100 mg/kg in [7].
`O=C1O[C@@H](Cn2ccnn2)CN1c1ccc(N2CCN(S(=O)(=O)c3ccc(F)cc3)CC2)c(F)c1`: the MIC against Enterococcus faecalis stood at 1 µg/mL (≈ 1.98 µM); with Streptococcus pneumoniae, 0.5 µg/mL (≈ 0.991 µM); against Staphylococcus aureus [1], 1 µg/mL (≈ 1.98 µM); in [2], 0.5 µg/mL (≈ 0.991 µM); in assay [3], 1 µg/mL (≈ 1.98 µM); in the assay with Staphylococcus aureus [4] it was 0.5 µg/mL (≈ 0.991 µM).
For `O=C1O[C@@H](Cn2ccnn2)CN1c1ccc(N2CCN(S(=O)(=O)c3ccc([N+](=O)[O-])cc3)CC2)c(F)c1`, the MIC in the assay on Enterococcus faecalis came out at 1 µg/mL (≈ 1.88 µM); in the assay on Streptococcus pneumoniae, 0.5 µg/mL (≈ 0.941 µM); with Staphylococcus aureus [1], 1 µg/mL (≈ 1.88 µM); in assay [2], 1 µg/mL (≈ 1.88 µM); in assay [3], 1 µg/mL (≈ 1.88 µM); in the assay on Staphylococcus aureus [4], 1 µg/mL (≈ 1.88 µM).
`N#Cc1ccc(S(=O)(=O)N2CCN(c3ccc(N4C[C@H](Cn5ccnn5)OC4=O)cc3F)CC2)cc1`: the MIC against Enterococcus faecalis came out at 4 µg/mL (≈ 7.82 µM); in the assay on Streptococcus pneumoniae it was 4 µg/mL (≈ 7.82 µM); in the assay with Staphylococcus aureus [1], 0.5 µg/mL (≈ 0.977 µM); in [2], 2 µg/mL (≈ 3.91 µM); in assay [3], 2 µg/mL (≈ 3.91 µM); in the assay on Staphylococcus aureus [4], 2 µg/mL (≈ 3.91 µM).
For `Nc1cccc(S(=O)(=O)N2CCN(c3ccc(N4C[C@H](Cn5ccnn5)OC4=O)cc3F)CC2)c1`, the minimal inhibitory concentration (MIC) against Enterococcus faecalis was 0.25 µg/mL (≈ 0.498 µM); in the assay on Streptococcus pneumoniae, 0.5 µg/mL (≈ 0.997 µM); in the assay with Staphylococcus aureus [1], 0.25 µg/mL (≈ 0.498 µM); in assay [2], 0.5 µg/mL (≈ 0.997 µM); in [3], 1 µg/mL (≈ 1.99 µM); with Staphylococcus aureus [4], 0.125 µg/mL (≈ 0.249 µM). Further, the ED50 (in the assay with Staphylococcus aureus [6]; in assay [7]) was greater than 100 mg/kg in each case.
`O=C1O[C@@H](Cn2ccnn2)CN1c1ccc(N2CCN(S(=O)(=O)c3ccccc3)CC2)c(F)c1`: the MIC with Enterococcus faecalis came to 2 µg/mL (≈ 4.11 µM); against Streptococcus pneumoniae, 1 µg/mL (≈ 2.06 µM); against Staphylococcus aureus [1], 1 µg/mL (≈ 2.06 µM); in assay [2], 0.5 µg/mL (≈ 1.03 µM); in [3], 2 µg/mL (≈ 4.11 µM); in the assay with Staphylococcus aureus [4] it was 1 µg/mL (≈ 2.06 µM).
Regarding `O=C1O[C@@H](Cn2ccnn2)CN1c1ccc(N2CCN(S(=O)(=O)c3ccc(Br)cc3)CC2)c(F)c1`, the MIC in the assay on Enterococcus faecalis came to 2 µg/mL (≈ 3.54 µM); against Streptococcus pneumoniae it was 2 µg/mL (≈ 3.54 µM); with Staphylococcus aureus [1], 8 µg/mL (≈ 14.1 µM); in [2], 8 µg/mL (≈ 14.1 µM); in assay [3], 4 µg/mL (≈ 7.07 µM); in the assay on Staphylococcus aureus [4], 4 µg/mL (≈ 7.07 µM).
As to `O=C1O[C@@H](Cn2ccnn2)CN1c1ccc(N2CCN(S(=O)(=O)c3cccc([N+](=O)[O-])c3)CC2)c(F)c1`, the minimum inhibitory concentration (MIC) was determined as 0.03 µg/mL (≈ 0.0564 µM) in the assay on Enterococcus faecalis; 0.015 µg/mL (≈ 0.0282 µM) with Streptococcus pneumoniae; 0.06 µg/mL (≈ 0.113 µM) in the assay on Staphylococcus aureus [1]; 0.06 µg/mL (≈ 0.113 µM) in assay [2]; 0.5 µg/mL (≈ 0.941 µM) in [3]; 0.06 µg/mL (≈ 0.113 µM) in the assay on Staphylococcus aureus [4]. For the same molecule, the ED50 was greater than 100 mg/kg with Staphylococcus aureus [5], 55.1 mg/kg in the assay on Staphylococcus aureus [6] and 84.3 mg/kg in assay [7].
`O=C(OCc1ccccc1)N1CCN(c2ccc(N3C[C@H](Cn4ccnn4)OC3=O)cc2F)CC1`: the MIC in the assay on Enterococcus faecalis was 0.5 µg/mL (≈ 1.04 µM); against Streptococcus pneumoniae, 0.5 µg/mL (≈ 1.04 µM); in the assay on Staphylococcus aureus [1], 0.5 µg/mL (≈ 1.04 µM); in assay [2] it was 1 µg/mL (≈ 2.08 µM); in assay [3], 0.5 µg/mL (≈ 1.04 µM); against Staphylococcus aureus [4], 0.25 µg/mL (≈ 0.52 µM).
For `O=C1O[C@@H](Cn2ccnn2)CN1c1ccc(N2CCN(S(=O)(=O)c3ccccc3[N+](=O)[O-])CC2)c(F)c1`, the minimal inhibitory concentration (MIC) against Enterococcus faecalis is 0.5 µg/mL (≈ 0.941 µM); with Streptococcus pneumoniae it was 0.5 µg/mL (≈ 0.941 µM); in the assay on Staphylococcus aureus [1], 1 µg/mL (≈ 1.88 µM); in assay [2] it was 0.5 µg/mL (≈ 0.941 µM); in assay [3] it was 1 µg/mL (≈ 1.88 µM); in the assay with Staphylococcus aureus [4], 0.5 µg/mL (≈ 0.941 µM).
Take `CC(=O)NC[C@H]1CN(c2ccc(N3CCOCC3)c(F)c2)C(=O)O1` [LINEZOLID]: the MIC in the assay with Enterococcus faecalis worked out at 0.25 µg/mL (≈ 0.741 µM); against Streptococcus pneumoniae, 0.25 µg/mL (≈ 0.741 µM); against Staphylococcus aureus [1], 1 µg/mL (≈ 2.96 µM); in [2], 1 µg/mL (≈ 2.96 µM); in [3] it was 0.5 µg/mL (≈ 1.48 µM); against Staphylococcus aureus [4], 0.125 µg/mL (≈ 0.371 µM). Further, the values for the median effective dose (ED50) (with Staphylococcus aureus [5]; with Staphylococcus aureus [6]; in [7]) were 17.9 mg/kg, 24 mg/kg and 84.8 mg/kg, respectively.
Take `CN[C@H](CC(C)C)C(=O)N[C@H]1C(=O)N[C@@H](CC(N)=O)C(=O)N[C@H]2C(=O)N[C@H]3C(=O)N[C@H](C(=O)N[C@H](C(=O)O)c4cc(O)cc(O)c4-c4cc3ccc4O)[C@H](O)c3ccc(c(Cl)c3)Oc3cc2cc(c3O[C@@H]2O[C@H](CO)[C@@H](O)[C@H](O)[C@H]2O[C@H]2C[C@](C)(N)[C@H](O)[C@H](C)O2)Oc2ccc(cc2Cl)[C@H]1O` [VANCOMYCIN]: the minimum inhibitory concentration (MIC) against Enterococcus faecalis was 0.25 µg/mL (≈ 0.173 µM); with Streptococcus pneumoniae, 0.25 µg/mL (≈ 0.173 µM); in assay [2], 0.5 µg/mL (≈ 0.345 µM); in assay [3], 0.25 µg/mL (≈ 0.173 µM); in the assay with Staphylococcus aureus [4], 0.25 µg/mL (≈ 0.173 µM).
